Patent US20060293231A1, “Method for enhancing bone formation” (priority 2004, published 2006)
Where “and” joins values, the source holds several entries; their conditions need not be identical. Equal values may be shown once. Entries after “also recorded” stand apart in the source; their conditions may differ.

Assays:
Assay type in all cases: cell-based, human
[1] = system: platelet-rich plasma (PRP); test: Clotting time of platelet-rich plasma (visual)
Experimental: (§1) PRP composites were prepared by mixing PRP and TRAP with bone substitutes commonly utilized in the clinical setting. Twenty four-well plates (Corning Inc., Corning, N.Y.) were coated with 1% bovine serum albumin (Sigma, St. Louis, Mo.) and incubated for 1.5 hours at 37° C. Sterilized BioOss (25 mg, 0.5-1.0 mm), AlloGro (25 mg), and 45S5 Bioactive Glass (25 mg, […]) were uniformly dispersed within the wells. Fresh PRP (0.5 ml) aliquots were then dispensed into the pre-coated 24-well plates, and 30 μl of 10% calcium chloride solution were added to each well. Experiments were performed in triplicate (n=3) with the addition of bovine thrombin (75 units) or thrombin receptor activating peptide (TRAP, H2N-Ser-Phe-Leu-Leu Arg-Asn-NH2). TRAP was used to clot PRP for all bone substitute groups examined. • Growth Factor Release—Effects of Bone Substitute and Incubation Mode
(§2) PRP (0.5 mL) aliquots were dispensed into 24-well plates precoated with 1% bovine serum albumin (Sigma, St Louis, Mo.). Thirty microliters of 10% CaCl2 solution (American Reagent Laboratories, Shirley, N.Y.) were added to each well. Experiments were performed in triplicate (n=3) with the addition of bovine thrombin (30, 100, 300 units; GenTrac, Middleton, Wis.) or TRAP (10, 50, 100 μmol/L; Bachem Bioscience Inc, King of Prussia, Pa.). At 30 minutes, if still attached, the clots were gently released from the sides of the culture well with a pipette tip. PRP prepared with CaCl2 solution […] the addition of thrombin or TRAP served as the control group.
(§3) Clotting times were monitored by visualization. Clot retraction was determined by measuring the clot diameter at 1, 2, 4, and 24 hours, and the value was normalized against the well diameter. • Preparation of Platelet-Rich Plasma-Bone Substitute Composites with Thrombin Receptor Agonist Peptide-6
(§4) After the optimization of TRAP concentration, experiments were repeated with the addition of 25 or 50 mg of bone substitutes. To minimize nonspecific binding, the culture well (Corning Inc, Corning, N.Y.) was precoated with 1% bovine serum albumin (Sigma) and incubated for 1.5 hours at 37° C. Sterilized BioOss (25 mg, 0.5 to 1.0 mm; Osteohealth, Shirley, N.Y.), AlloGro (25 mg; Ceramed, Lakewood, Colo.), and 45S5 Bioactive Glass (25 mg, 300 μm; Mo-Sci, Rolla, Minn.) were uniformly dispersed within the wells. Fresh PRP (0.5 mL) aliquots were then dispensed into the precoated 24-well plates, and 30 μl of 10% CaCl2 solution (American Reagent Laboratories, Shirley, N.Y.) was added to each well. Experiments were performed in triplicate (n=3) with the addition of TRAP (H2N-Ser-Phe-Leu-Leu-Arg-Asn-NH2) to the wells containing bone substitutes. • Growth Factor Release from Platelet-Rich Plasma Prepared with Thrombin or Thrombin Receptor Agonist Peptide-6

TGFβ = TGFβ release from PRP clots and PRP composites (enzyme immunoassay of supernatant); details: for TGFβ release/retention post clotting, comparison between groups: day 1 post clotting, p<0.05
Experimental: as §1
(§5) The temporal release of growth factors was examined as a function of bone substitute and mode of sample incubation. Specifically, the PRP composites were allowed to clot, and all samples were incubated at 37° C. and humidified environment for up to 14 days. The media were exchanged for all groups at 1 day after incubation. The volume of fluid released from the clot was measured and equal volume of fresh Dulbecco's Modification of Eagle's Medium (DMEM, Mediatech, Herdon, Va.) without serum was added back to each well. Subsequently, in the dynamic incubation mode (Group 1), the fluid released from the clot was collected and equal volume of fresh DMEM was added back into the well at 3, 7, and 14 days. In the static mode (Group 2), the media was exchanged only at the designated time points (7 and 14 days). All collected supernatant samples were stored at −70° C. prior to analyses. • Quantification of PDGF and TGFβ
TGFβ was assayed with a similar enzyme immunoassay technique. A dilution series of TGFβ standards was prepared in 100 μl volumes in 96-well microtiter plates coated with TGFβ receptor Type II. The sample supernatants (0.025 ml) obtained from PRP composites were diluted with 0.075 ml of phosphate buffer saline solution. The samples were then activated with 0.1 ml of 1.0 N HCl incubated at room temperature for 10 minutes, neutralized by an addition of 0.1 ml of 1.2 N NaOH/0.5 M HEPES (N-[2-hydroxyethyl] piperazine-N-[2-ethanesulfonic acid]). The supernatant fractions were then incubated for 3 hours at room temperature. The wells were then washed and enzyme-conjugated polyclonal antibody to TGFβ1 was added and allowed to incubate for 1.5 hours at room temperature. The reaction was stopped and absorbance was measured at 450 nm using a spectrophotometer (SpectraFluor Plus, Tecan, Maennedorf, Switzerland). A standard curve was generated and the TGFβ levels (pg/ml) of each sample were determined. The total amount of growth factors was calculated based on the amount of supernatant obtained after clot retraction. • Statistical Analyses
(§6) The temporal release of growth factors was examined as a function of time and mode of PRP preparation. Specifically, the PRP clotted with thrombin or TRAP was allowed to gel, and all samples were incubated at 37° C. in a humidified environment for up to 14 days. The volume of fluid released from the clot was measured. Growth factor release was assessed at 1, 3, 7, and 14 days. All collected supernatant samples were stored at −70° C. before analysis. • Quantification of Platelet-Derived Growth Factor and Transforming Growth Factor-β
TGFβ was assayed with a similar enzyme immunoassay technique. A dilution series of TGFβ standards were prepared in 96-well microtiter plates coated with TGFβ receptor Type II. The sample supernatants (0.025 mL) obtained from PRP composites were diluted with 0.075 mL of phosphate-buffered saline solution. […]

[2] = system: platelet-rich plasma (PRP); test: PRP clot retraction (clot diameter normalized against well diameter; released fluid volume)
Experimental: as §2, §3, §4, §6

PDGF-AB = PDGF-AB release from PRP clots and PRP composites (sandwich enzyme immunoassay of supernatant); details: for effect of media exchange on PDGF release: Group 1 (dynamic mode) versus Group 2 (static mode, less frequent exchange)
Experimental: as §1, §5
Supernatants collected from all time points for both Group 1 and 2 were assayed for PDGF-AB and TGFβ content using diagnostic kits from R & D Systems (Minneapolis, Minn.). Both assays are based on a sandwich enzyme immunoassay technique. The PDGF-AB assay uses a pre-coated microtiter plate with a monoclonal antibody to PDGF-AA. Preparation and dilution of samples and standards were performed as directed by the manufacturer. Both the standards and the samples were incubated for 3 hours at room temperature. The plate was washed with buffer and a conjugated antibody to PDGF-BB was added to the wells and incubated at room temperature for an additional 1 hour. The plate was then washed and substrate added for 20 minutes at room temperature. The reaction was stopped and absorbance was determined at 450 nm using a spectrophotometer (SpectraFluor Plus, Tecan, Maennedorf, Switzerland). A standard curve was generated and the PDGF-AB levels (pg/ml) of each sample were determined. The total amount of growth factor was calculated based on the amount of supernatant obtained after clot retraction.
as §6
Supernatants were assayed for PDGF-AB and TGFβ content using diagnostic kits from R & D Systems (Minneapolis, Minn.). Both assays are based on a sandwich enzyme immunoassay technique. The PDGF-AB assay used a precoated microtiter plate with a monoclonal antibody to PDGF-AA. Preparation and dilution of samples and standards were performed as directed by the manufacturer. Both the standards and the samples were incubated for 3 hours at room temperature. […]

H2N-Ser-Phe-Leu-Leu-Arg-Asn-NH2 [TRAP, reference compound]
time for the clot to completely solidify ([1]; Example 1, TRAP at 100 μm): 14.5 min | time for the clot to completely solidify ([1]; Example 2, TRAP at 100 μmol/L): 9.25 min | TGFβ retained compared to the thrombin group (TGFβ; Example 1, time not stated (day 1 context)): 39.2% | TGFβ retained, more than the thrombin group (TGFβ; Example 2, at 72 hours): 39.2% | TGFβ release/retention post clotting, comparison between groups (TGFβ): significantly lower levels | decrease in the clot diameter ([2]; TRAP 50 μmol/L): 15% | decrease in the clot diameter ([2]; TRAP 100 μmol/L): 15% | PDGF-AB released (PDGF-AB; Example 1, at 7 days): 11,624 pg | PDGF-AB released (PDGF-AB; Example 1, day 1): 20,642 pg | PDGF-AB released (PDGF-AB; Example 2, at 7 days, mean±SD): 2,797.6±612.0 pg | PDGF-AB released (PDGF-AB; Example 2, day 1, mean±SD): 20,642±1,170.0 pg | effect of media exchange on PDGF release (PDGF-AB): no statistically significant effects; also recorded: No significant difference

thrombin: bovine thrombin (GenTrac), serine protease used as standard PRP clotting agent
time to complete polymerization of PRP ([1]; Example 1, 30 units of thrombin added to 0.5 ml PRP mixture): 6 min | time to clot formation ([1]; Example 1, 100 units thrombin, 0.5 ml PRP): 1.25 min | time to clot formation ([1]; Example 1, 300 units thrombin, 0.5 ml PRP): 1.25 min | time to complete polymerization of PRP ([1]; Example 2, 30 units of thrombin added to 0.5 mL PRP mixture): 6 min | time to clot formation ([1]; Example 2, 100 units thrombin): 3.25 min | TGFβ release from the clot after 14 days (TGFβ; after 14 days): all of the TGFβ present in the original PRP thrombin clots had been released; also recorded: all the TGFβ in thrombin clots was released | TGFβ release/retention post clotting, comparison between groups (TGFβ): highest amount | TGFβ already released from the clot (TGFβ; within 24 hours, of total TGFβ in original PRP): over 81.4% | clot retraction ([2]; 30 units of thrombin): 34% | shrinkage of the clot (clot retraction) ([2]; 100 units of thrombin, all time points): 43% | volume of supernatant released from the clot ([2]; all time points, comparison between groups): largest release volume | clot retraction ([2]; at 24 hours, TRAP with 25 mg bone substitute, thrombin 100 units): 56%±3% and 56% | PDGF-AB released (PDGF-AB; Example 1, at 7 days): 5,068 pg | PDGF-AB released (PDGF-AB; Example 1, day 1): 32,526 pg | PDGF-AB released (PDGF-AB; Example 2, at 7 days, mean±SD): 1,738.2 ±443.0 pg | PDGF-AB released (PDGF-AB; Example 2, day 1, mean±SD): 32,526±6,752.4 pg | effect of media exchange on PDGF release (PDGF-AB): No significant difference | effect of media exchange on PDGF release (PDGF-AB; listed as Thrombin): no statistically significant effects | PDGF-AB release, more than the TRAP group (PDGF-AB; day 1): approximately 36%
